ChEMBL document CHEMBL4177636, “Design, synthesis, and biological evaluation of pyrrolobenzodiazepine-containing hypoxia-activated prodrugs” (Bioorg Med Chem Lett, 2017)

Columns and labels:
[1] = tested on: NCI-H460; test: Cytotoxicity against human NCI-H460 cells after 24 hrs under hypoxic condition by luminescence-based Cell-Titer Glo assay; type: functional; details: NCI-H460, 24 h
[2] = Induction of DNA (unknown origin) alkylation assessed as amount remaining of unalkylated test oligonucleotides after 18 hrs by LC/MS/UV analysis; set-up: concentration or dose not given beside the values
[3] = tested on: NCI-H460; test: Cytotoxicity against human NCI-H460 cells after 24 hrs under normoxic condition by luminescence-based Cell-Titer Glo assay; details: NCI-H460, 24 h
[4] = Selectivity index, ratio of prodrug IC50 under normoxic condition to prodrug IC50 under hypoxic condition; type: functional
[5] = (§1) Prodrug activation assessed as recombinant human cytochrome P450-reductase-mediated drug metabolism by measuring (11aS,11a'S)-8,8'-(pentane-1,5-diylbis(oxy))bis(7-methoxy-2-methylene-2,3-dihydro-1H-benzo[e]pyrrolo[1,2-a][1,4]diazepin-5(11aH)-one) level under normoxic condition after 2 hrs by LC-MS analysis; type: ADME; details: recombinant enzyme
[6] = as §1, with “hypoxic” for “normoxic”; type: ADME; details: recombinant enzyme
[7] = Prodrug activation assessed as recombinant human cytochrome P450-reductase-mediated drug metabolism by measuring (S)-7,8-dimethoxy-2-(quinolin-6-yl)-1H-benzo[e]pyrrolo[1,2-a][1,4]diazepin-5(11aH)-one level under hypoxic condition after 2 hrs by LC-MS analysis; type: ADME; details: recombinant enzyme
[8] = Prodrug activation assessed as recombinant human cytochrome P450-reductase-mediated drug metabolism by measuring (S)-7,8-dimethoxy-2-(quinolin-6-yl)-1H-benzo[e]pyrrolo[1,2-a][1,4]diazepin-5(11aH)-one level under normoxic condition after 2 hrs by LC-MS analysis; type: ADME; details: recombinant enzyme
[9] = Prodrug activation assessed as recombinant human cytochrome P450-reductase-mediated drug metabolism by measuring (S)-7,8-dimethoxy-2-methylene-2,3-dihydro-1H-benzo[e]pyrrolo[1,2-a][1,4]diazepin-5(11aH)-one level under hypoxic condition after 2 hrs by LC-MS analysis; type: ADME; details: recombinant enzyme
[10] = Prodrug activation assessed as recombinant human cytochrome P450-reductase-mediated drug metabolism by measuring (S)-7,8-dimethoxy-2-methylene-2,3-dihydro-1H-benzo[e]pyrrolo[1,2-a][1,4]diazepin-5(11aH)-one level under normoxic condition after 2 hrs by LC-MS analysis; type: ADME; details: recombinant enzyme

SMILES	IC50 [1] [nM]	Activity [2] [%]	IC50 [3] [nM]	Ratio IC50 [4]	Drug metabolism [5] [%]	Drug metabolism [6] [%]	Drug metabolism [7] [%]	Drug metabolism [8] [%]	Drug metabolism [9] [%]	Drug metabolism [10] [%]
C=C1C[C@H]2C=Nc3cc(OC)c(OC)cc3C(=O)N2C1	273	84	550	2	–	–	–	–	–	–
C=C1C[C@H]2C=Nc3cc(OCCCCCOc4cc5c(cc4OC)C(=O)N4CC(=C)C[C@H]4C(O)N5C(=O)OCc4cnc([N+](=O)[O-])n4C)c(OC)cc3C(=O)N2C1 (some centres not stated)	1.1	92	1.4	1.3	0	0	–	–	–	–
COc1cc2c(cc1OC)N(C(=O)OCc1cnc([N+](=O)[O-])n1C)C(O)[C@@H]1CC(c3ccc4ncccc4c3)=CN1C2=O (some centres not stated)	17	100	232	13.6	–	–	92	5	–	–
COc1cc2c(cc1OC)C(=O)N1C=C(c3ccc4ncccc4c3)C[C@H]1C=N2	0.54	78	0.77	1.4	–	–	–	–	–	–
C=C1C[C@H]2C(O)N(C(=O)OCc3cnc([N+](=O)[O-])n3C)c3cc(OC)c(OC)cc3C(=O)N2C1 (some centres not stated)	35000	100	196000	5.6	–	–	–	–	100	2
C=C1C[C@H]2C(O)N(C(=O)OCc3cncn3C)c3cc(OC)c(OC)cc3C(=O)N2C1 (some centres not stated)	–	–	–	–	–	–	–	–	0	0
C=C1C[C@H]2C=Nc3cc(OCCCCCOc4cc5c(cc4OC)C(=O)N4CC(=C)C[C@H]4C=N5)c(OC)cc3C(=O)N2C1	0.062	42	0.092	1.5	–	–	–	–	–	–
Cn1c(COP(=O)(NCCBr)NCCBr)cnc1[N+](=O)[O-] [EVOFOSFAMIDE]	9.3	–	6650	715	–	–	–	–	–	–
C=C1C[C@H]2C=Nc3cc(OCCCCCOc4cc5c(cc4OC)C(=O)N4CC(=C)C[C@H]4C(O)N5C(=O)OCc4cncn4C)c(OC)cc3C(=O)N2C1 (some centres not stated)	–	–	–	–	0	0	–	–	–	–
